Measured values as given in patent US5073572A, “Bioactive metabolites from cribrochalina vasculum” (Harbor Branch Oceanographic Institution, Inc., priority 1990, dated 1991).
Values after ≈ are worked out from the molar mass of the structure shown.

What was measured:
[1] = lymphocyte viability (LCV) assay; format: cell-based, murine; conditions: mouse, splenocytes, percentage of positive LCV control (no compound)
Procedure: The pure compounds were tested for immunosuppressive effects in the MLR assay and for specific cytotoxicity effects in the lymphocyte viability (LCV) assay both using murine splenocytes. Cellular proliferation was determined using incorporation of ^3 H-thymidine and a modified form of the M. T. T. assay (Mosmann, T. [1983] "Rapid colorimetric assay for cellular growth and survival: Application to proliferation and cytotoxicity assays," J. Immunol. Methods, 65:55-63). Responses were reported as a percent of the positive MLR or LCV control. As a general rule, a low MLR value combined with a high LCV value indicates immunosuppressive activity.
^b Viability (LCV) of lymphocytes as measured by metabolism of M.T.T.
Results are expressed as a percentage of the positive LCV control respons

[2] = test system: P388 leukemia cells; assay: antiproliferative effect against P388 leukemia cells (MTT); format: cell-based; conditions: Mus musculus; murine P388 leukemia cells, 48-h exposure; mean ± S.D., n in parentheses
Procedure: (§1) The crude ethanolic extract and essentially pure compound were tested for toxicity against murine P388 leukemia cells and cells derived from human colon (HT-29) and lung (A549) tumors. P388 cells obtained from Dr. J. Mayo, National Cancer Institute, Bethesda Md., were maintained in Roswell Park Memorial Institute (RPMI) medium 1640 supplemented with 10% horse serum. HT-29 and A-459 human tumor cells were obtained from the American Type Culture Collection (Rockville, Md.) and maintained in RPMI medium 1640 supplemented with 10% fetal bovine serum. All cell lines were cultured in plastic tissue culture flasks and kept in an incubator at 37° C. in humidified air containing 5% CO2. Antibiotic-free stock cultures of P388 cells were subcultured to 10^5 cells/ml by dilution in fresh growth medium at 2 to 3 day intervals. The mean generation time of primary P388 cultures was 14 to 17 hr. HT-29 and A549 cells were subcultured after dissociation with trypsin-EDTA at weekly intervals.
(§2) To assess the antiproliferative effects of agents against P388, HT-29, and A549 cells, 200 μl cultures (96-well tissue culture plates, Nunc, Denmark) were established at 1×10^5 cells/ml (4000 cells/cm^2 for HT-29 and A549) in drug-free medium or medium containing the crude extract at a final dilution of 1:500 of test compound at various concentrations. Solvent for all dilutions was methanol, which was removed from plates under vacuum. All experimental cultures were initiated in medium containing Gentamicin sulfate ([…]; Schering Corporation, Kenilworth, N.J.). After 48-h exposures, P388 cells were enumerated using 3-[4,5-Dimethylthiazol-2-yl]-2,5-diphenyltetrazolium bromide (MTT) as described below (Alley, M. C., et al.[1988] Cancer Res. 48:589).
(§3) To quantitate the effects on cell proliferation, 75 μl of warm growth medium containing 5 mg/ml MTT was added to each well and cultures were returned to the incubator for 90 minutes. To spectrophotometrically quantitate MTT, plates were centrifuged (900×g, 5 minutes), culture fluids removed by aspiration, and 200 μl of acidified isopropanol (2 ml concentrated HCl/liter isopropanol) added per well. The absorbance of the resulting solutions were measured at 570 nm with a plate reader (MR700 Microplate Reader, Dynatech, Laboratories, Chantilly, Va.). […] A linear relationship between tumor cell number and formazan produced was found over the range of cell densities observed in these experiments.

[3] = test system: HT-29 colon tumor cells; assay: antiproliferative effect against HT-29 colon tumor cells (MTT); format: cell-based; conditions: human colon tumor cells, mean ± S.D., n in parentheses
Procedure: as §1, §2, §3

[4] = test system: A549 lung tumor cells; assay: antiproliferative effect against A549 lung tumor cells (MTT); format: cell-based; conditions: human lung tumor cells, mean ± S.D., n in parentheses
Procedure: as §1, §2, §3

[5] = test system: murine splenocytes; assay: two-way mixed lymphocyte reaction (MLR); format: cell-based; conditions: Mus musculus, Splenocyte, percentage of positive MLR control (no compound); for activity at 0.01 µg/well: 0.01 ug/well; for activity at 0.1 µg/well: 0.1 ug/well; for activity at 1 µg/well: 1 ug/well; for activity at 10 µg/well: 10 ug/well
Procedure: The crude ethanolic extract was tested in the two-way mixed lymphocyte reaction (MLR) and a CV-1 cytotoxicity assay at a 1X concentration of the crude extract, using murine splenocytes. Cellular proliferation was measured using incorporation of ^3 H-thymidine.
The pure compounds were tested for immunosuppressive effects in the MLR assay and for specific cytotoxicity effects in the lymphocyte viability (LCV) assay both using murine splenocytes. […] Responses were reported as a percent of the positive MLR or LCV control. As a general rule, a low MLR value combined with a high LCV value indicates immunosuppressive activity.
^a Twoway murine mixed lymphocyte response. Results are expressed as
percentage of the positive MLR control response (no compound).

SMILES	viability ([1]; 0.01 ug/well)	viability ([1]; 0.1 ug/well)	viability ([1]; 1 ug/well)	viability ([1]; 10 ug/well)	IC50 [2]	IC50 [3]	IC50 [4]	activity at 0.01 µg/well [5]	activity at 0.1 µg/well [5]	activity at 1 µg/well [5]	activity at 10 µg/well [5]
C#CC(O)C=CCCCCCCCCCC=CCCCCCC (stereo not drawn) [SP10099]	67%	34%	13%	22%	1.23 ± 0.53 µg/mL (≈ 3.86 µM)	1.66 ± 0.15 µg/mL (≈ 5.21 µM)	1.75 ± 0.06 µg/mL (≈ 5.49 µM)	33%	0%	0%	0%
C#CC(O)C=CCCCCCCCCCC=CCCCCC(C)C (stereo not drawn) [SP10102]	67%	45%	15%	0%	1.63 ± 0.29 µg/mL (≈ 4.9 µM)	1.46 ± 0.06 µg/mL (≈ 4.39 µM)	2.9 ± 0.34 µg/mL (≈ 8.72 µM)	20%	0%	0%	0%
C#CC(O)C=CCCCCCCCCCCC(C)CCCC (stereo not drawn) [SP10100]	78%	42%	12%	8%	1.58 ± 0.51 µg/mL (≈ 5.15 µM)	0.86 ± 0.06 µg/mL (≈ 2.81 µM)	1.56 ± 0.06 µg/mL (≈ 5.09 µM)	21%	0%	0%	0%
C#CC(O)C=CCCCCCCCCCCCCCCC (stereo not drawn) [SP10098]	80%	61%	21%	2%	1.21 ± 0.73 µg/mL (≈ 4.14 µM)	1.66 ± 0.47 µg/mL (≈ 5.68 µM)	1.6 ± 0.1 µg/mL (≈ 5.47 µM)	24%	0%	0%	0%
C#CC(O)C=CCCCCCCCCCCCCCC(C)C (stereo not drawn) [SP10101]	82%	49%	7%	10%	1.44 ± 0.28 µg/mL (≈ 4.7 µM)	1.06 ± 0.11 µg/mL (≈ 3.46 µM)	2.3 ± 0.7 µg/mL (≈ 7.5 µM)	21%	0%	0%	
